Assay results: ChEMBL document CHEMBL3120093 (J Med Chem, 2014)

Legend:
[1] = AUC in rat at 5 mg/kg, po after 24 hrs; assay type: ADME, organism-based; set-up: time < 24 hr, dose 5 mg/kg, route oral; conditions: plasma
[2] = Permeability of the compound at PH 7.4 by PAMPA; assay type: ADME; conditions: read-out: permeability
[3] = Plasma concentration in rat at 5 mg/kg, po after 24 hrs; assay type: ADME, organism-based; set-up: dose 5 mg/kg, route oral
[4] = Plasma concentration in dog at […], po after 24 hrs; assay type: ADME, organism-based, Canis lupus familiaris; set-up: dose 2.3 mg/kg, route oral
[5] = AUC in rat at 5 mg/kg, po after 4 hrs; assay type: ADME, organism-based; set-up: time < 4 hr, dose 5 mg/kg, route oral; conditions: plasma
[6] = Plasma concentration in rat at 5 mg/kg, po after 4 hrs; assay type: ADME, organism-based; set-up: dose 5 mg/kg, route oral
[7] = AUC in dog at […], po after 24 hrs; assay type: ADME, organism-based, Canis lupus familiaris; set-up: time < 24 hr, dose 2.3 mg/kg, route oral; conditions: plasma
[8] = Oral bioavailability in rat at 5 mg/kg after 24 hrs; assay type: ADME, organism-based; conditions: in vivo
[9] = Drug uptake in rat liver at 5 mg/kg, po after 24 hrs; assay type: ADME, organism-based; set-up: dose 5 mg/kg, route oral; conditions: read-out: Drug uptake
[10] = Drug uptake in rat liver at 5 mg/kg, po after 4 hrs; assay type: ADME, organism-based; set-up: dose 5 mg/kg, route oral; conditions: read-out: Drug uptake
[11] = Oral bioavailability in dog at […] after 24 hrs; assay type: ADME, organism-based, Canis lupus familiaris; conditions: in vivo
[12] = Volume of distribution in rat at 2 mg/kg, iv after 24 hrs; assay type: ADME, organism-based; set-up: dose 2 mg/kg, route intravenous; conditions: in vivo
[13] = Oral bioavailability in dog at 3 mg/kg after 24 hrs; assay type: ADME, organism-based, Canis lupus familiaris; conditions: plasma
[14] = test system: Liver microsome; experiment: Metabolic stability of the compound in human liver microsomes assessed as cyanide adduct formation at 10 uM after 30 mins; assay type: ADME; conditions: 0.5 h
[15] = Clearance in rat at 2 mg/kg, iv after 24 hrs; assay type: ADME, organism-based; set-up: dose 2 mg/kg, route intravenous; conditions: in vivo
[16] = Half life in rat at 2 mg/kg, iv after 24 hrs; assay type: ADME, organism-based; set-up: dose 2 mg/kg, route intravenous; conditions: in vivo
[17] = test system: Liver microsome; experiment: Metabolic stability of the compound in human liver microsomes assessed as GSH adduct formation at 10 uM after 30 mins; conditions: 0.5 h
[18] = Volume of distribution in dog at 1 mg/kg, iv after 24 hrs; assay type: ADME, organism-based, Canis lupus familiaris; set-up: dose 1 mg/kg, route intravenous; conditions: in vivo
[19] = test system: Liver microsome; experiment: Metabolic stability of the compound in human liver microsomes assessed as GSH adduct formation at 10 uM after 30 mins; assay type: ADME; conditions: 0.5 h
[20] = Clearance in rat at 2 mg/kg, iv after 4 hrs; assay type: ADME, organism-based; set-up: dose 2 mg/kg, route intravenous; conditions: in vivo
[21] = Plasma concentration in dog at 3 mg/kg, po after 24 hrs; assay type: ADME, organism-based, Canis lupus familiaris; set-up: dose 3 mg/kg, route oral
[22] = AUC in dog at 3 mg/kg, po after 24 hrs; assay type: ADME, organism-based, Canis lupus familiaris; set-up: time < 24 hr, dose 3 mg/kg, route oral; conditions: plasma
[23] = test system: Liver microsome; experiment: Metabolic stability of the compound in rat liver microsomes assessed as […] formation at 10 uM after 30 mins; assay type: ADME; conditions: 0.5 h
[24] = Clearance in dog at 1 mg/kg, iv after 24 hrs; assay type: ADME, organism-based, Canis lupus familiaris; set-up: dose 1 mg/kg, route intravenous; conditions: in vivo
[25] = Half life in dog at 1 mg/kg, iv after 24 hrs; assay type: ADME, organism-based, Canis lupus familiaris; set-up: dose 1 mg/kg, route intravenous; conditions: in vivo
[26] = Permeability from basolateral to apical side of human Caco2 cells; assay type: ADME, cell-based; conditions: Caco-2, read-out: permeability
[27] = Ratio of drug level in liver to plasma in rat at 5 mg/kg, po after 24 hrs; assay type: ADME, organism-based; set-up: dose 5 mg/kg, route oral
[28] = Oral bioavailability in mouse at 20 mg/kg after 24 hrs; assay type: ADME, organism-based; conditions: plasma
[29] = Clearance in mouse at 5 mg/kg, iv after 24 hrs; assay type: ADME, organism-based; set-up: dose 5 mg/kg, route intravenous; conditions: in vivo
[30] = Volume of distribution in mouse at 5 mg/kg, iv after 24 hrs; assay type: ADME, organism-based; set-up: dose 5 mg/kg, route intravenous; conditions: in vivo
[31] = Half life in mouse at 5 mg/kg, iv after 24 hrs; assay type: ADME, organism-based; set-up: dose 5 mg/kg, route intravenous; conditions: in vivo
[32] = AUC in mouse at 20 mg/kg, po after 24 hrs; assay type: ADME, organism-based; set-up: time < 24 hr, dose 20 mg/kg, route oral; conditions: plasma
[33] = Drug uptake in mouse liver at 20 mg/kg, po after 24 hrs; assay type: ADME, organism-based; set-up: dose 20 mg/kg, route oral; conditions: read-out: Drug uptake
[34] = Permeability from apical to basolateral side of human Caco2 cells; assay type: ADME, cell-based; conditions: Caco-2, read-out: permeability
[35] = Plasma concentration in mouse at 20 mg/kg, po after 24 hrs; assay type: ADME, organism-based; set-up: dose 20 mg/kg, route oral
[36] = Oral bioavailability in dog at 3.5 mg/kg after 24 hrs; assay type: ADME, organism-based, Canis lupus familiaris; conditions: in vivo
[37] = AUC in dog at 3.5 mg/kg, po after 24 hrs; assay type: ADME, organism-based, Canis lupus familiaris; set-up: time < 24 hr, dose 3.5 mg/kg, route oral; conditions: plasma
[38] = Plasma concentration in dog at 3.5 mg/kg, po after 24 hrs; assay type: ADME, organism-based, Canis lupus familiaris; set-up: dose 3.5 mg/kg, route oral

Structure (SMILES)	AUC at 24 h [1] [µM·h]	Papp [2] [×10⁻⁶ cm/s]	concentration at 24 h [3] [nM]	AUC at 4 h [5] [µM·h]	concentration at 4 h [6] [nM]	bioavailability [8] [%]	concentration at 24 h [9] [nM]	concentration at 4 h [10] [nM]	Vd [12] [L/kg]	bioavailability [13] [%]	clearance [15] [mL/min/kg]	half-life [16] [h]	Vd [18] [L/kg]	clearance [20] [mL/min/kg]	concentration at 24 h [21] [nM]	AUC at 24 h [22] [µM·h]	clearance [24] [mL/min/kg]	half-life [25] [h]	bioavailability [28] [%]	clearance [29] [mL/min/kg]	other results
COC(=O)N[C@H](C(=O)N1CCC[C@H]1c1nc(-c2ccc(-c3ccc(-c4c[nH]c([C@@H]5CCCN5C(=O)[C@@H](NC(=O)OC)C(C)C)n4)cc3)cc2)c[nH]1)C(C)C	4.8	49.6	18	2.18	661	50	103	2240													concentration at 24 h [4]: 26 nM; AUC at 24 h [7]: 11 µM·h; bioavailability at 24 h [11]: 108%
O=C([C@@H](c1ccccc1)N1CCCCC1)N1CCC[C@H]1c1ncc(-c2ccc(-c3ccc(-c4cnc([C@@H]5CCCN5C(=O)[C@@H](c5ccccc5)N5CCCCC5)[nH]4)cc3)cc2)[nH]1		25.1		0.047	13			1200	20	14	63	7.7	10	58	8.3	0.272	28	> 12			Stability [14]: Unstable; Stability [17]: Stable; Stability [19]: Stable; Stability [23]: Unstable
COC(=O)N[C@@H](C(=O)N1CCC[C@H]1c1ncc(-c2ccc(-c3ccc(-c4cnc([C@@H]5CCCN5C(=O)[C@H]5CCCO5)[nH]4)cc3)cc2)[nH]1)c1ccccc1	1.83	46.4	4.5	0.809	234	6.8	116	2570	0.3	45	4.4	6.9	7.5		6	1.52	22	> 10	17	5.3	Papp B→A [26]: 10.5 ×10⁻⁶ cm/s; Kp at 24 h [27]: 26; Vd [30]: 1.9 L/kg; half-life [31]: 2.9 h; AUC at 24 h [32]: 15.1 µM·h; concentration at 24 h [33]: 253 nM; Papp A→B [34]: < 1.5 ×10⁻⁶ cm/s; concentration at 24 h [35]: 59 nM
CCN(CC)[C@@H](C(=O)N1CCC[C@H]1c1ncc(-c2ccc(-c3ccc(-c4cnc([C@@H]5CCCN5C(=O)[C@H](C)NC(=O)OC)[nH]4)cc3)cc2)[nH]1)c1ccccc1	0.165	25.3		0.049	30	3.6	178	1830													bioavailability [36]: 66%; AUC at 24 h [37]: 1.2 µM·h; concentration at 24 h [38]: 9 nM
CN(C)[C@@H](C(=O)N1CCC[C@H]1c1ncc(-c2ccc(-c3ccc(-c4cnc([C@@H]5CCCN5C(=O)[C@H]5CCCO5)[nH]4)cc3)cc2)[nH]1)c1ccccc1		15.8							60	60	57	14	82		30	0.436			6	18	Vd [30]: 14 L/kg; half-life [31]: 7.8 h; AUC at 24 h [32]: 1.42 µM·h; concentration at 24 h [33]: 539 nM; concentration at 24 h [35]: 25 nM
CCN(CC)[C@@H](C(=O)N1CCC[C@H]1c1ncc(-c2ccc(-c3ccc(-c4cnc([C@@H]5CCCN5C(=O)[C@@H](c5ccccc5)N(CC)CC)[nH]4)cc3)cc2)[nH]1)c1ccccc1		25.5		0.013	6			1090						4							
